Key:
Type in all cases: cell-based
CCR6 = biological target: T1, CCR6 (Homo sapiens, UniProt P51684); test: Chemotaxis assay for receptor specificity, HEK293-CCR6; conditions: compound as chemoattractant in lower chamber, 0.2, 1, 5, 25 μM
T1 construct: expressed in transfected cells; host or cells: HEK293, pcDI-CCR6 plasmid made in the authors' laboratory
T1 sequence (P51684 1-374): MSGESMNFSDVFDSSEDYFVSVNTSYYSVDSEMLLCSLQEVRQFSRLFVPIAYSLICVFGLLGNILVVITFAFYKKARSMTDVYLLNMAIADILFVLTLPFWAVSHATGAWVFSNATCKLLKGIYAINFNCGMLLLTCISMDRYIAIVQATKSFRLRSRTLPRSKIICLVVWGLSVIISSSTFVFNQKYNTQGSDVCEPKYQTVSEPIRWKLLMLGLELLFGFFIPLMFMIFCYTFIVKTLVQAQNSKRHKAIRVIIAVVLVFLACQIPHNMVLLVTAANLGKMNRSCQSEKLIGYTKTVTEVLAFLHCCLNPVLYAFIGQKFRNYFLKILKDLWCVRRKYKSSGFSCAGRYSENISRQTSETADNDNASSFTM
Experimental: (§1) HEK293 cells were transfected with different chemokine receptors. Compound 8a with DMSO was diluted to 0.2 mM, 1 mM, 5 mM and 25 mM, and then we used RPMI 1640 medium containing 0.1% BSA for dilution. The final concentration is: 0.2 μM, 1 μM, 5 μM and 25 μM. DMSO was also diluted 1000-fold with 0.1% BSA RPMI 1640 medium. Chemokines was also diluted to an appropriate concentration. The dilutions of Compound 8a, 1‰ DMSO, the corresponding chemokines of different receptors and 0.1% BSA RPMI 1640 medium were placed in the lower chambers (27.5 μl/well). The transfected HEK293 cells were resuspended in the same medium at a density of 1 × 10^6 cells/ml and added to the upper chambers (55 μl/well).

CXCR3 = biological target: T2, CXCR3 (Homo sapiens, UniProt P49682); test: Chemotaxis inhibition assay for receptor specificity, HEK293-CXCR3; conditions: 0.2, 1, 5, 25 μM, 30 min pretreatment
T2 construct: expressed in transfected cells; host or cells: HEK293; plasmid from Chinese National Human Genome Center
T2 sequence (P49682 1-415 isoform P49682-2): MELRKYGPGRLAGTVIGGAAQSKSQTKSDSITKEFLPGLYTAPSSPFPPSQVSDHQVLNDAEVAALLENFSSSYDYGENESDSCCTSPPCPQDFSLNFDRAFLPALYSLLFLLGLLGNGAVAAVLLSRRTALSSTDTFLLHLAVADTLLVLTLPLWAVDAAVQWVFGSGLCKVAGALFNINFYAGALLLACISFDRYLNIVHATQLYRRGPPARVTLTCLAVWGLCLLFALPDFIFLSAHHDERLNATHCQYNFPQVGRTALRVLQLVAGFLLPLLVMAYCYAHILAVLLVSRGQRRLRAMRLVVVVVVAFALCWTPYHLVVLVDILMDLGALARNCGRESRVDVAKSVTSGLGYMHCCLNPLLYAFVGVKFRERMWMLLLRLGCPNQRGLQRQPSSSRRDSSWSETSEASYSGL
Experimental: HEK293 cells were transfected with different chemokine receptors. The corresponding chemokines of different receptors were placed in the lower chambers. The transfected cells were pretreated with different concentrations of Compound 8a or 1‰ DMSO for 30 min at a density of 1 × 10^6 cells/ml and added to the upper chambers, the final concentration of the compound is: 0.2 μM, 1 μM, 5 μM, and 25 μM, respectively.

CXCR1 = biological target: T3, CXCR1 (Homo sapiens, UniProt P25024); test: Chemotaxis assay for receptor specificity, HEK293-CXCR1; conditions: compound as chemoattractant in lower chamber, 0.2, 1, 5, 25 μM
T3 construct: expressed in transfected cells; host or cells: HEK293; plasmid gift of Dr. Philip M. Murphy (NIAID, NIH)
T3 sequence (P25024 1-350): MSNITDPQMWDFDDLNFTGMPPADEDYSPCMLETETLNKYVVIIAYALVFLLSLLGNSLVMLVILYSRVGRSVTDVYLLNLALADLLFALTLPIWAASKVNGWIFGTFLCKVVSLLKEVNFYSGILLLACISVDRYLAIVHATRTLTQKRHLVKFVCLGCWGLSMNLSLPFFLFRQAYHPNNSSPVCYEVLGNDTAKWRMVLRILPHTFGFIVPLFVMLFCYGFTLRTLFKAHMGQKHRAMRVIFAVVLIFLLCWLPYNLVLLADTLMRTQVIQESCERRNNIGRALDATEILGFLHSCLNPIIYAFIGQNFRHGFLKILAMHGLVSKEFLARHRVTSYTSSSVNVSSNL
Experimental: as §1

CCR1 = biological target: T4, CCR1 (Homo sapiens, UniProt P32246); test: Chemotaxis assay for receptor specificity, HEK293-CCR1; conditions: compound as chemoattractant in lower chamber, 0.2, 1, 5, 25 μM
T4 construct: expressed in transfected cells; host or cells: HEK293; plasmid gift of Dr. Philip M. Murphy (NIAID, NIH)
T4 sequence (P32246 1-355): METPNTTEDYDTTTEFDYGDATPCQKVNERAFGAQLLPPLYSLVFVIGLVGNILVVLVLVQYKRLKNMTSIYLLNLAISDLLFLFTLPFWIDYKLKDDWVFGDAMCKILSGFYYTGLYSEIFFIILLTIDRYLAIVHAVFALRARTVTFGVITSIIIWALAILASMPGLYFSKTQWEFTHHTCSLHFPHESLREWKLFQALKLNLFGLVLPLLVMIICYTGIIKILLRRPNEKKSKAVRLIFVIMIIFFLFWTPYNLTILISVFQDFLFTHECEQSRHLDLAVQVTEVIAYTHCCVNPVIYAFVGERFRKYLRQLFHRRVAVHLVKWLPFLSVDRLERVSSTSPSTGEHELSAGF
Experimental: as §1

chemotaxis effect of the compound on HEK293-CCR6 (CCR6): didn’t exert chemotaxis effects
inhibition of chemotaxis of HEK293-CXCR3 to its ligand (CXCR3): few influence
chemotaxis effect of the compound on HEK293-CXCR1 (CXCR1): didn’t exert chemotaxis effects
chemotaxis effect of the compound on HEK293-CCR1 (CCR1): didn’t exert chemotaxis effects
SMILES: O=C(C1CCCCN1)N1CCN(c2nc(Cl)cc(NCc3ccc(Cl)cc3Cl)n2)CC1 (stereo not shown) [compound 8a, {4-[4-Chloro-6-(2,4-dichloro-benzylamino)-pyrimidin-2-yl]-piperazin-1-yl}-piperidin-2-yl-methanone]

From paper PMC5678437, “A new antagonist for CCR4 attenuates allergic lung inflammation in a mouse model of asthma” (Scientific Reports, 2017)
